Where a name gives a salt, the structure may show the parent alone.
`CCN(CC)CCOc1ccc(NC(=O)C#Cc2ccc(-c3ccc(Cl)cc3)cc2)cc1Cl.Cl` showed a melting point of 226 to 233 °C. With `CN(Cc1ccc(/C=C/C(=O)Nc2ccc(-c3ccc(Cl)cc3)cc2)cc1)C1CCNCC1` (as salt: acetate) [Example 5.36, (E)-N-(4′-chlorobiphenyl-4-yl)-3-{4[(methylpiperidin-4-ylamino)methyl]phenyl}acrylamide×trifluoroacetic acid acetate] the melting point was 207 to 208 °C. With `CCN(CC)CCCOc1ccc(NC(=O)C#Cc2ccc(C(F)(F)F)cc2Cl)cc1Cl` (as salt: formate) [Example 4.18, 3-(2-chloro-4-trifluoromethylphenyl)propynoic acid-[3-chloro-4-(3-diethylaminopropoxy)phenyl]amide formate] the melting point was 112 to 116 °C. In the case of `COc1cc(NC(=O)C#Cc2ccc(C(F)(F)F)cc2Cl)ccc1OCCN1CCc2ccccc2C1` (as salt: formate) [Example 4.275, 3-(2-chloro-4-trifluoromethylphenyl)propynoic acid-{4-[2-(3,4-dihydro-1H-isoquinolin-2-yl)ethoxy]-3-methoxyphenyl}amide formate], the melting point was 92 to 95 °C. With `CCN(CC)CCOc1ccc(NC(=O)C#Cc2ccc(-c3ccccc3)cc2Cl)cc1Cl` (as salt: hydrochloride) [Example 3.32, 3-(3-chlorobiphenyl-4-yl)propynoic acid-[3-chloro-4-(2-diethylaminoethoxy)phenyl]amide hydrochloride] the melting point was 195 to 200 °C. `O=C(C#Cc1ccc(-c2ccccc2)cc1Cl)Nc1ccc(CN2CCCCC2)cc1` (as salt: hydrochloride) [Example 3.33, 3-(3-chlorobiphenyl-4-yl)propynoic acid-(4-piperidin-1-ylmethylphenyl)amide hydrochloride] showed a melting point of 260 to 265 °C. `CCN(CC)CCc1ccc(NC(=O)C#Cc2ccc(Cl)cc2Cl)cc1` (as salt: hydrochloride) [Example 3.34, 3-(2,4-dichlorophenyl)propynoic acid-[4-(2-diethylaminoethyl)phenyl]amide hydrochloride] showed a melting point of 204 to 208 °C. With `O=C(C#Cc1ccc(C(F)(F)F)cc1Cl)Nc1ccc(CN2CCCCC2)cc1` (as salt: hydrochloride) [Example 3.41, 3-(2-chloro-4-trifluoromethylphenyl)propynoic acid(4-piperidin-1-ylmethylphenyl)amide hydrochloride] the melting point was 193 to 195 °C. Work on `CC1CCN(CCOc2ccc(NC(=O)C#Cc3ccc(C(F)(F)F)cc3Cl)cc2)CC1` (as salt: hydrochloride) [Example 3.45, 3-(2-chloro-4-trifluoromethylphenyl)propynoic acid {4-[2-(4-methylpiperidin-1-yl)ethoxy]phenyl}amide hydrochloride] yielded a melting point of 240 to 245 °C. With `CCN(CC)CCOc1ccc(NC(=O)C#Cc2c(Cl)cc(Cl)cc2Cl)cc1Cl` (as salt: hydrochloride) [Example 4.5, 3-(2,4,6-trichlorophenyl)propynoic acid-[3-chloro-4-(2-diethylaminoethoxy)phenyl]amide hydrochloride] the melting point was 188 to 191 °C. Molecule `CCN(CC)CCOc1ccc(NC(=O)C#Cc2ccc(Cl)cc2Cl)cc1OC` (as salt: hydrochloride) [Example 4.7, 3-(2,4-dichlorophenyl)propynoic acid-[3-methoxy-4-(2-diethylaminoethoxy)phenyl]amide hydrochloride] has a melting point of 205 to 207 °C. With `CCN(CC)CCOc1ccc(NC(=O)C#Cc2ccc(Cl)cc2Cl)c(Cl)c1` (as salt: hydrochloride) [Example 4.8, 3-(2,4-dichlorophenyl)propynoic acid-[2-chloro-4-(2-diethylaminoethoxy)phenyl]amide] the melting point was 128 to 130 °C. Molecule `COc1cc(NC(=O)C#Cc2ccc(C(F)(F)F)cc2Cl)ccc1OCCN(C)CC1CC1` (as salt: hydrochloride) [Example 4.278, 3-(2-chloro-4-trifluoromethylphenyl)propynoic acid-{4-[2-(cyclopropylmethylmethylamino)ethoxy]-3-methoxyphenyl}amide hydrochloride] has a melting point of 173 to 176 °C. In the case of `CCCN(CCOc1ccc(NC(=O)C#Cc2ccc(C(F)(F)F)cc2Cl)cc1OC)CC1CC1` (as salt: hydrochloride) [Example 4.279, 3-(2-chloro-4-trifluoromethylphenyl)propynoic acid-{4-[2-(cyclopropylmethylpropylamino)ethoxy]-3-methoxyphenyl}amide hydrochloride], the melting point was 185 to 188 °C. Work on `CN(C(=O)C#Cc1ccc(CN2CCC(N3CCCC3)CC2)cc1)c1ccc(-c2ccc(Cl)cc2)cc1` (as salt: trifluoroacetate) [Example 1.24, 3-[4-(4-pyrrolidin-1-ylpiperidin-1-ylmethyl)phenyl]propynoic acid-(4′-chlorobiphenyl-4-yl)methylamideditrifluoroacetate] yielded a melting point of 161 to 164 °C. For `NC1(c2ccc(C#CC(=O)Nc3ccc(-c4ccc(Cl)cc4)cc3)cc2)CC1` (as salt: trifluoroacetate) [Example 1.422, 3-[4-(1-aminocyclopropyl)phenyl]propynoic acid-(4′-chlorobiphenyl-4-yl)amide trifluoroacetate], the melting point was 160 to 164 °C. For `CNC1(c2ccc(C#CC(=O)Nc3ccc(-c4ccc(Cl)cc4)cc3)cc2)CC1` (as salt: trifluoroacetate) [Example 1.423, 3-[4-(1-methylaminocyclopropyl)phenyl]propynoic acid-(4′-chlorobiphenyl-4-yl)amide trifluoroacetate], the melting point was 217.3 °C. With `O=C(CCc1ccc(CNC2CC2)cc1)Nc1ccc(-c2ccc(Cl)cc2)cc1` (as salt: trifluoroacetate) [Example 6.43, N-(4′-chlorobiphenyl-4-yl)-3-(4-cyclopropylaminomethylphenyl)propionamide trifluoroacetate] the melting point was 208 °C. `CC#Cc1ccc(NC(=O)C#Cc2ccc(CN3CCCCC3)cc2)cc1` [Example 1.2, 3-(4-piperidin-1-ylemthylphenyl)propynoic acid-(4-prop-1-ynylphenyl)amide] gave a melting point of 180 to 181 °C. In the case of `COc1ccc(-c2ccc(NC(=O)C#Cc3ccc(CN4CCCCC4)cc3)cc2)cc1` [Example 1.8, 3-(4-piperidin-1-ylmethylphenyl)propynoic acid-(4′-methoxybiphenyl-4-yl)amide], the melting point was 170 °C. Molecule `COc1ccc(-c2ccc(NC(=O)C#Cc3ccc(CN4CCC(Nc5ccccn5)CC4)cc3)cc2)cc1` [Example 1.11, 3-{4-[4-(pyridin-2-ylamino)piperidin-1-ylmethyl]phenyl}propynoic acid-(4′-methoxybiphenyl-4-yl)amide] has a melting point of 196 to 197 °C. Molecule `O=C(C#Cc1ccc(CN2CCCC2)cc1)Nc1ccc(-c2ccc(Cl)cc2)cc1F` [Example 1.17, 3-(4-pyrrolidin-1-ylmethylphenyl)propynoic acid-(4′-chloro-3-fluorobiphenyl-4-yl)amide] has a melting point of 136 °C. Molecule `O=C(C#Cc1ccc(CN2CCC[C@@H]2CO)cc1)Nc1ccc(-c2ccc(Cl)cc2)cc1F` [Example 1.20, 3-[4-((R)-2-hydroxymethylpyrrolidin-1-ylmethyl)phenyl]propynoic acid-(4′-chloro-3-fluorobiphenyl-4-yl)amide] has a melting point of 146 to 148 °C. Molecule `O=C(C#Cc1ccc(CN2CCC(O)CC2)cc1)Nc1ccc(-c2ccc(Cl)cc2)cc1F` [Example 1.21, 3-[4-(4-hydroxypiperidin-1-ylmethyl)phenyl]propynoic acid-(4′-chloro-3-fluorobiphenyl-4-yl)amide] has a melting point of 164 to 165 °C. Work on `CC(C)(O)C1CCN(Cc2ccc(C#CC(=O)Nc3ccc(-c4ccc(Cl)cc4)cc3)cc2)CC1` [Example 1.34, 3-{4-[4-(1-hydroxy-1-methylethyl)piperidin-1-ylmethyl]phenyl}propynoic acid-(4′-chlorobiphenyl-4-yl)amide] yielded a melting point of 194 to 195 °C. In the case of `COC1CCN(Cc2ccc(C#CC(=O)Nc3ccc(-c4ccc(Cl)cc4)cc3)cc2)CC1` [Example 1.36, 3-[4-(4-methoxypiperidin-1-ylmethyl)phenyl]propynoic acid-(4′-chlorobiphenyl-4-yl)amide], the melting point was 145 to 146 °C. For `CC1(O)CCN(Cc2ccc(C#CC(=O)Nc3ccc(-c4ccc(Cl)cc4)cc3)cc2)CC1` [Example 1.37, 3-[4-(4-hydroxy-4-methylpiperidin-1-ylmethyl)phenyl]propynoic acid-(4′-chlorobiphenyl-4-yl)amide], the melting point was 192 to 193 °C. Work on `O=C(C#Cc1ccc(CN2CCC(N3CCCC3)CC2)cc1)Nc1ccc(-c2ccc(Cl)cc2)cc1` [Example 1.38] yielded a melting point of 191 to 192 °C. For `O=C(C#Cc1ccc(CN2CCCCC2)cc1)Nc1ccc(-c2ccc(Cl)cc2)cc1` [Example 1.39, 3-(4-piperidin-1-ylemthylphenyl)propynoic acid-(4′-chlorobiphenyl-4-yl)amide], the melting point was 179.5 °C. With `CN(Cc1ccc(C#CC(=O)Nc2ccc(-c3ccc(Cl)cc3)cc2)cc1)CC1CC1` [Example 1.40] the melting point was 181 °C. `O=C(C#Cc1ccc(CNCCC2CCCCC2)cc1)Nc1ccc(-c2ccc(Cl)cc2)cc1` [Example 1.52, 3-{4-[(cyclohexylethylamino)methyl]phenyl}propynoic acid-(4′-chlorobiphenyl-4-yl)amide] showed a melting point of 156 to 157 °C. With `CN(Cc1ccc(C#CC(=O)Nc2ccc(-c3ccc(Cl)cc3)cc2)cc1)Cc1ccccn1` [Example 1.58] the melting point was 217 to 218 °C. Work on `CC1CCN(C2(c3ccc(C#CC(=O)Nc4ccc(-c5ccc(Cl)cc5)cc4)cc3)CC2)CC1` [Example 1.424, 3-{4-[1-(4-methylpiperidin-1-yl)cyclopropyl]phenyl}propynoic acid(4′-chlorobiphenyl-4-yl)amide] yielded a melting point of 128 to 129 °C. With `CN(Cc1ccc(C#CC(=O)Nc2ccc(-c3ccc(Cl)cc3)cc2)cc1)C1CCCC1` [Example 1.425] the melting point was 217 to 219 °C. `O=C(C#Cc1ccc(CCN2CCCC2)cc1)Nc1ccc(-c2ccccc2)cc1` [Example 2.1, 3-[4-(2-pyrrolidin-1-ylethyl)phenyl]propynoic Acid biphenyl-4-ylamide] gave a melting point of 180 to 189 °C. Molecule `O=C(C#Cc1ccc(CCN2CCCC2)cc1)Nc1ccc(Cl)cc1` [Example 2.2, 3-[4-(2-pyrrolidin-1-ylethyl)phenyl]propynoic acid-4-chlorophenylamide] has a melting point of 153 to 154 °C.
